As usually defined, the EC50 is the midpoint of the concentration-response curve.

The values that follow come from patent US20030109571A1, “Thromboxane ligands without blood clotting side effects” (ALLERGAN SALES, INC., priority 1993, published 2003).

For data set [1], the system named is isolated perfused coronary arteries. Conditions: cat, cited from earlier work.
Data set [2] concerns platelets. Particulars: in words; cited from earlier work.
For data set [3], the system named is Platelets (Human). The experiment in a line: Platelet aggregation in platelet-rich plasma from healthy human donors. Format: cell-based. Conditions: for EC50: Table 1, read-out: EC50 Platelets (Human) Aggregation; for Ability to cause platelet aggregation: in words. As to the method: (§1) Activity at different prostanoid receptors was measured in vitro in isolated smooth muscle preparations. FP-activity was measured as contraction of the isolated feline iris sphincter. EP1-activity was measured as contraction of the longitudinal smooth muscle of the isolated guinea pig ileum. EP3-activity was measured as inhibition of the twitch response induced by electrical field stimulation in the isolated guinea pig was deferens and as contraction of the longitudinal smooth muscle of the isolated chick ileum. TP-vasoconstrictor activity was measured as contraction of rings of the isolated rat thoracic aorta. Effects on platelets from healthy human donors were measured by incubating platelet-rich plasma with the compounds described herein. Inhibition of aggregation was determined by the ability of the compounds described herein to inhibit platelet aggregation in platelet-rich plasma induced by 20 μM ADP.

Data set [4] concerns EP3 prostanoid receptor. As to the kind of experiment: EP3-activity: contraction of longitudinal smooth muscle of isolated chick ileum. Conditions: read-out: EC50 at EP3(d) (Chick Ileum). On the procedure:
as §1

Data set [5] in a line: Dog intraocular pressure, topical dosing, applanation pneumatonometry. Format: in vivo. Conditions: dog, dose 0.1%. On the procedure: The compounds were prepared at the said concentrations in a vehicle comprising 0.1% polysorbate 80 and 10 mM TRIS base. Dogs and monkeys were treated by administering 25 ul to the ocular surface, the contralateral eye received vehicle as a control. Intraocular pressure was measured by applanation pneumatonometry. Experiments were performed with dogs and monkeys. Dog intraocular pressure was measured immediately before drug administration and at 2, 4 and 6 hour thereafter. Additional studies in monkeys were performed over a 5 day period and drug was administered at times 0, 6, 24, 30, 48, 54, 72, 78, and 96 hours. Monkey intraocular pressure was recorded just before drug administration on each day and at the 2 and 4 hour time intervals between dosing.

For data set [6], the system named is Platelets. As to the kind of experiment: Effect of Example 4 pretreatment on agonist-induced platelet aggregation. Format: cell-based, human. As to the method: as §1, with “Inhibition of aggregation was determined by the ability of the compounds described herein to inhibit platelet aggregation in platelet-rich plasma induced by 20 μM ADP.” left out
The target in data set [7] is FP prostanoid receptor. As to the kind of experiment: FP-activity: contraction of the isolated feline iris sphincter. Conditions: concentration producing 50% of maximal response; read-out: EC50 at FP (Cat Iris). As to the method:
as §1

Data set [8] has as its system vasculature. Particulars: in words; cited from earlier work.
Data set [9] has as its system EP3 prostanoid receptor. The experiment in a line: EP3-activity: inhibition of electrically induced twitch response in isolated guinea pig vas deferens. Particulars: read-out: EC50 at EP3(c) (Guinea Pig vas deferens). On the procedure: as §1
Data set [10] addresses T1, TP-receptor (vascular, TPVASC) (Rattus norvegicus, UniProt P34978).
T1 construct: measured in vitro in isolated smooth muscle preparations; from tissue; host or cells: rings of isolated rat thoracic aorta
T1 sequence (P34978 1-341): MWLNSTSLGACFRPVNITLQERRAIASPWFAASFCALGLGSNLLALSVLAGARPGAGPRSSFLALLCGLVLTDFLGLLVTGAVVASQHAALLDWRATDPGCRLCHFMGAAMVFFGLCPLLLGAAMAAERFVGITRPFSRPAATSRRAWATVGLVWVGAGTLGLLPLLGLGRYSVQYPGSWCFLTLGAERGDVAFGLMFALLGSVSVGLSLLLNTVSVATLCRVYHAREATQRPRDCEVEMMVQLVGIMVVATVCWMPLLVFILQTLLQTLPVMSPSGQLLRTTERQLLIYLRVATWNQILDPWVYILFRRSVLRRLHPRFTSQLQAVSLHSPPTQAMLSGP
The experiment in a line: TP-vasoconstrictor activity: contraction of rings of isolated rat thoracic aorta, without or with SQ29,548. Particulars: for Activity in contracting vascular smooth muscle: in words. As to the method: as §1
In addition, inhibition by the thromboxane A2-receptor antagonist SQ29,548 ([1S-[1α, 2α (5Z), 3α, 4α]]-7-[3-[[2-[phenylamino)carbonyl]-hydrazino]methyl]-7-oxabicyclo[2.2.1] hept-2-yl]-5-heptenoic acid) of vasoconstrictor activity was investigated.

For data set [11] the following is noted: in vivo, iv; cited from earlier work.
Data set [12] deals with HPRP. Conditions: in words; cited from earlier work.
The target of data set [13] is T2, TXA2 receptor (Homo sapiens, UniProt P21731).
T2 sequence (P21731 1-343): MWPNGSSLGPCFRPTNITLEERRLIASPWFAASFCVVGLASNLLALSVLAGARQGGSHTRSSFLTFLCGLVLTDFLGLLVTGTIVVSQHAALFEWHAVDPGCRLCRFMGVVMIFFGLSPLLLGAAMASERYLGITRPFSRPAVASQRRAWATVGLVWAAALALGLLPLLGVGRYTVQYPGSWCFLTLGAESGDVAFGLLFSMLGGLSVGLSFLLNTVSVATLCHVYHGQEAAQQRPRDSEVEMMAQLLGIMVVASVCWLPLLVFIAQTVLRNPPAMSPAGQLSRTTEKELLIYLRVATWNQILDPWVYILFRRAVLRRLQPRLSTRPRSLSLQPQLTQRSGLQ
Particulars: in words; cited from earlier work.

Data set [14] relates to rat aorta. Conditions: cited from earlier work.
The subject of data set [15] is rabbit PRP. Particulars: in words; cited from earlier work.
Data set [16] has as its target T3, TX synthetase (Homo sapiens, UniProt P24557).
T3 sequence (P24557 1-533): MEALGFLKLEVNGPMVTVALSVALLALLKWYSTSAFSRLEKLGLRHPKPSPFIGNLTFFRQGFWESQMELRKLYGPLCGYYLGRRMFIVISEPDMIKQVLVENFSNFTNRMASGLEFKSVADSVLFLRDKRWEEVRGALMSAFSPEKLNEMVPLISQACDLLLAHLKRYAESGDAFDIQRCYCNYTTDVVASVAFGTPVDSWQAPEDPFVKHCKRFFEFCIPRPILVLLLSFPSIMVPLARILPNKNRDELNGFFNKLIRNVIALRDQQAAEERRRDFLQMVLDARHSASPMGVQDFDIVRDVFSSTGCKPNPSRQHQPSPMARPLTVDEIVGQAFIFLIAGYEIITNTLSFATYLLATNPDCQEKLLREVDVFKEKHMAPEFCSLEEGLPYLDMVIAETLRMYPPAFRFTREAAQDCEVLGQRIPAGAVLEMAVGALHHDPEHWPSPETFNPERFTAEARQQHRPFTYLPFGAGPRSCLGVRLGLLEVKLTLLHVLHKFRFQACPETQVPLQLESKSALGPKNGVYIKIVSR
Conditions: in words; cited from earlier work.

[17] abbreviates: Table 1, read-out: EC50 at TPVASC (Rat Aorta).

Structures are written as SMILES. Entries after “also recorded” stand apart in the source; their conditions may differ. Like-named read-outs stand apart in the source and are kept apart here. Marks after values point to notes of the source that are not given here. Some results are limits rather than exact numbers.

With `CCCCC[C@H](O)/C=C/[C@@H]1[C@@H](C/C=C\CCCCO)[C@@H]2C[C@H]1OC(=O)O2` [Example 4], the “Constriction of isolated perfused coronary arteries” value in data set [1] (in words) is reported as “profound constric- tion”. Moreover, in [1], the “Constriction of isolated perfused coronary arteries, potency relative to TXB2” value is 10^1 × TXB2. Moreover, the Action on platelets entry in data set [2] is given as “profound TXA antagonist”. For the same molecule, the EC50 in data set [3] is above 10000 nM; in data set [4], above 10000 nM; in [7], 485 nM; in data set [9], 2930 nM; in [10] (setting [17]), 1 nM; in [10] (absence of SQ29,548, read-out: EC50 at TPVASC-receptor, rat aorta), 0.9 nM. The EC50 in data set [10] (presence of SQ29,548 (1 uM), read-out: EC50 at TPVASC-receptor, rat aorta) came out at 454 nM. Besides, the “Ability to cause platelet aggregation” value in data set [3] was “no or minimal ability; also recorded: neither causes platelet aggregation”. The Intraocular pressure change in data set [5] (2 HR after dosing) was −6.7**; in data set [5] (4 HR after dosing), −7.7**; in data set [5] (6 HR after dosing) it was −8.5**. Also, the “Platelet aggregation after Example 4 pretreatment” value is 73.1 ± 14.3 % of max response in data set [6] (agonist 2 μM ADP, 10^-6 M Example 4); 68.3 ± 12.9 % of max response in [6] (agonist 2 μM ADP, 10^-7 M Example 4); 97.6 ± 1.8 % of max response in data set [6] (agonist 20 μM ADP, 10^-6 M Example 4); 99.9 ± 1.4 % of max response in data set [6] (agonist 20 μM ADP, 10^-7 M Example 4); 98.8 ± 1.1 % of max response in data set [6] (agonist 800 μM Arachidonic Acid, 10^-6 M Example 4); 98.0 ± 1.8 % of max response in data set [6] (agonist 800 μM Arachidonic Acid, 10^-7 M Example 4). Further, the “Platelet aggregation after Example 4 pretreatment” value in data set [6] (agonist 3.3 × 10-7 U46619, 10^-6 M Example 4) was 94.2 ± 2.8 % of max response; in data set [6] (agonist 3.3 × 10-7 U46619, 10^-7 M Example 4), 93.8 ± 2.3 % of max response; in [6] (agonist 3.3 × 10-8 Example 7, 10^-6 M Example 4) it was −7.3 + 0.7 % of max response; in [6] (agonist 3.3 × 10-8 Example 7, 10^-7 M Example 4), −9.0 + 1.6 % of max response; in data set [6] (agonist 10-6 Example 7, 10^-6 M Example 4), 96.5 ± 0.9 % of max response; in data set [6] (agonist 10-6 Example 7, 10^-7 M Example 4) it was 95.3 ± 0.9 % of max response. Besides, the “Platelet aggregation after Example 4 pretreatment” value in data set [6] (agonist 10-6 U46619, 10^-6 M Example 4) is listed as 96.0 ± 0.8 % of max response; in data set [6] (agonist 10-6 U46619, 10^-7 M Example 4) it was 94.6 ± 2.6 % of max response; in [6] (agonist 10-7 Example 7, 10^-6 M Example 4) it was 99.5 ± 1.7 % of max response; in [6] (agonist 10-7 Example 7, 10^-7 M Example 4) it was 97.8 ± 1.7 % of max response; in data set [6] (agonist 10-7 U46619, 10^-6 M Example 4), −5.6 + 0.9 % of max response; in [6] (agonist 10-7 U46619, 10^-7 M Example 4), −5.5 + 1.1 % of max response. Moreover, the “Platelet aggregation after Example 4 pretreatment” value is on record as −8.0 + 2.9 % of max response in data set [6] (agonist 10-8 Example 7, 10^-6 M Example 4) and −8.4 + 0.9 % of max response in data set [6] (agonist 10-8 Example 7, 10^-7 M Example 4). Moreover, the “Inhibition of ADP or arachidonic acid induced platelet aggregation” value in data set [6] (in words) is “did not inhibit”. Also, the “Action on the vasculature” value in [8] is “Potent TXA2-like agonist”. Moreover, the “Activity in contracting vascular smooth muscle” value in [10] is “pronounced activity”. In data set [11], the “Ischemic damage in the heart during coronary insufficiency” value is “Exacerbated ischemic damage”.
Take `CCCCC[C@H](O)/C=C/C1C[C@H]2CC(O2)[C@@H]1C/C=C\CCCC(=O)O` (stereo partly drawn) [Example 2]: the “Inhibition of PGH2-induced aggregation of HPRP” value in [12] was “Inhibitor of PGH2-induced ag- gregation of HPRP^1”.
As to `CCCCCC(O)/C=C/C1C2CC(OC(=O)O2)C1C/C=C\CCCC(=O)NC(C)C` (stereo not drawn) [Example 17, 7-[6-carboisopropylamino-2-cis-hexenyl]-6-[3α-hydroxy-1-trans-octenyl]-3-oxo-2,4-dioxobicyclo [3.2.1] octane], in data set [13], the TXA2-like activity result is reported as “Mixture of C-15 epimers has stong TXA2-like activity^14”. For the same molecule, the concentration giving a half-maximal response (EC50) in data set [7] turned out to be 3020 nM; in [10] (setting [17]), 324 nM.
For `CCCCCC(O)/C=C/C1C2CC(OC(=O)O2)C1C/C=C\CCCC(N)=O` (stereo not drawn) [Example 15, 7-[6-carboamino-2-cis-hexenyl]-6-[3α-hydroxy-1-trans-octenyl]-3-oxo-2,4-dioxobicyclo [3.2.1] octane], in [14], the “Contraction of rat aortic strips relative to TXA2” value was 0.02 × TXA2. For the same molecule, the “Aggregation of rabbit PRP” value in data set [15] is “did not aggre-”. In addition, the “Antagonism of the aggregatory effect of TXA2” value in data set [15] is recorded as “did not”. Besides, in data set [16], the “Effect on TX (TXA2) synthetase” value is “did not”. Also, the results for the EC50 in [3], in data set [7] and in data set [10] (setting [17]) were 3110 nM, 387 nM and 58 nM, respectively. Besides, in [3], the “Ability to cause platelet aggregation” value is listed as “no or minimal ability”. Besides, in data set [10], the “Activity in contracting vascular smooth muscle” value is recorded as “pronounced activity”.
